Data published in patent US20180256561A1, “Pharmaceutical Combination” (GLAXOSMITHKLINE INTELLECTUAL PROPERTY DEVELOPMENT LIMITED, priority 2015, published 2018).
Read-outs that look alike come from different tables or passages of the source.

How the values were obtained:
subjects with COPD [1] = settings: 28-day study; cited from earlier work
subjects with COPD [2] = settings: 400 mcg and 1200 mcg once daily, 14 days; cited from earlier work
[3] = test system: subjects with persistent uncontrolled asthma; test: Randomised, double-blind, placebo-controlled parallel group study of fluticasone furoate in subjects with persistent uncontrolled asthma (8 weeks); format: in vivo, human
Procedure: In one such study, the safety and efficacy of four doses of fluticasone furoate in subjects with persistent uncontrolled asthma were evaluated. In this study, which was a randomised, double-blind, placebo-controlled, parallel group study, 598 patients received one of six treatments: fluticasone furoate (25, 50, 100 or 200 mcg) once daily, fluticasone propionate 100 mcg twice daily or placebo for 8 weeks. The primary endpoint was change from baseline in trough (pre-dose) forced expiratory volume in 1 second (FEV1) at Week 8. […] This study supports the use of fluticasone furoate (100 or 200 mcg once-daily) for the treatment of persistent uncontrolled asthma.

Compound	tolerability (subjects with COPD [1])	tolerability (subjects with COPD [2])	increase in trough FEV1 from baseline at Week 8 relative to placebo ([3]; 100 mcg once daily) [mL]	increase in trough FEV1 from baseline at Week 8 relative to placebo ([3]; 200 mcg once daily) [mL]
COc1cc(NC(=O)CCN2CCC(OC(=O)Nc3ccccc3-c3ccccc3)CC2)c(Cl)cc1CNC[C@H](O)c1ccc(O)c2[nH]c(=O)ccc12 [Compound 1, biphenyl-2-ylcarbamic acid 1-[2-(2-chloro-4-{[(R)-2-hydroxy-2-(8-hydroxy-2-oxo-1,2-dihydroquinolin-5-yl)ethylamino]methyl}-5-methoxyphenylcarbamoyl)ethyl]piperidin-4-yl ester]	well tolerated	well tolerated	–	–
C[C@@H]1C[C@H]2[C@@H]3C[C@H](F)C4=CC(=O)C=C[C@]4(C)[C@@]3(F)[C@@H](O)C[C@]2(C)[C@@]1(OC(=O)c1ccco1)C(=O)SCF [Compound 2, 6α,9α-difluoro-17α-[(2-furanylcarbonyl)oxy]-11β-hydroxy-16α-methyl-3-oxo-androsta-1,4-diene-17β-carbothioic acid S-fluoromethyl ester]	–	–	> 200	> 200
